Source: ChEMBL document CHEMBL1149958, “Conformationally restricted piperidinyl benzamides as 5-HT3 receptor antagonists” (Bioorg Med Chem Lett, 1992)

What was measured:
[1] = pKA value was determined; type: physicochemical
Rattus norvegicus = assay: Antagonist potency towards serotonin 5-HT3 receptor was determined by inhibition of 5-HT induced bradycardia (Bezold-Jarisch reflex) in anaesthetized rat; type: functional; settings: for ED50: Rattus norvegicus, read-out: ID50 (the source's name)

With COc1cc(N)c(Cl)cc1C(=O)NC1CCN2CCOCC2C1 (stereo unspecified) the pKa [1] was 6.3 and the ED50 (Rattus norvegicus) was 0.017 mg/kg.

In the case of COc1cc(N)c(Cl)cc1C(=O)NC1CCN2C(C)CCC2C1 (stereo unspecified), the ED50 (Rattus norvegicus) is reported as 0.012 mg/kg.

CCN(CC)CCNC(=O)c1cc(Cl)c(N)cc1OC [METOCLOPRAMIDE] gave an ED50 (Rattus norvegicus) of 0.5 mg/kg.

In the case of COc1cc(N)c(Cl)cc1C(=O)NC1CCN2CCCC2C1 (stereo in doubt; 4a), the ID50 (Rattus norvegicus) is reported as >1 mg/kg.

With COc1cc(N)c(Cl)cc1C(=O)NC1CCN2CCCC2C1 (stereo in doubt; 4b) the ID50 (Rattus norvegicus) was 0.024 mg/kg.

With COc1cc(N)c(Cl)cc1C(=O)NC1CC(C)N2CCCC2C1 (stereo unspecified) the ED50 (Rattus norvegicus) was 0.29 mg/kg.

COc1cc(N)c(Cl)cc1C(=O)NC1CCN2C(C)COCC2C1 (stereo unspecified) showed an ED50 (Rattus norvegicus) of 0.0095 mg/kg.

In the case of CN1[C@@H]2CC[C@H]1C[C@@H](OC(=O)c1c[nH]c3ccccc13)C2 [TROPISETRON], the ED50 (Rattus norvegicus) is reported as 0.0014 mg/kg.

Molecule COc1cc(N)c(Cl)cc1C(=O)NC1CCN2C(C)CCCC2C1 (stereo unspecified) [BRL-20627] has a pKa [1] of 9.2 and an ED50 (Rattus norvegicus) of 0.225 mg/kg.
